# Where two headings read alike, the source gives them in different places.
# Tests used:
# E. coli MG1655 = assay type: cell-based; conditions: for Number DE Genes: false discovery rate below 1%
# Description: RNA-Seq results for promoter activation in E. coli MG1655 in response to single and multiple toxin exposures at low and high concentrations: Our analysis of the sequencing data from RNA-Seq experiments to determine candidate genes that are induced upon toxin exposure consisted of three main tasks: sequence alignment, quantification of gene expression, and identification of differentially expressed genes. Sequence alignment: Reads were aligned to the reference E. coli K-12 substr. MG1655 genome using a tolerance of at most two mismatches per alignment to protect against sequencing errors. The alignment was performed using Bowtie software, 5 which is known to be very efficient in aligning reads to a reference genome. Without being limiting, Bowtie software 5 can be used for the alignment. Those skilled in the art will appreciate that there are many such software programs for performing alignments.
# Quantification of gene expression: The expression level of each gene was determined as a function of the number of aligned reads mapping to the gene. […] Additionally, we implemented our own algorithms for sequence alignment and quantification of gene expression in order to crosscheck all results.
# Identification of differentially expressed genes: Finally, a set of statistical and information theory algorithms were applied in order to extract not only differentially expressed (DE) genes for each toxin with respect to the control samples (pure water) but also toxin-specific genes. DESeq is a standard tool for identifying DE genes that allowed us to select sensitive genes with differential expression between the control samples (pure water) and the cells exposed to toxin. It assumes that the number of counts for each gene across experimental replicates follows a negative binomial distribution (8, 9). We considered genes with a False Discovery Rate (FDR) lower than 1% as DE in order to ensure statistically robust DE genes. […] Additionally, genes with the largest number of counts and expression levels are preferable in order to maximize the signal-to-noise ratio. When it is not possible to find toxin-specific genes, the next generation of good candidates is formed by those genes satisfying the above properties for a small subset of toxins (multiple-toxin response). It is desirable to have single-toxin-specific genes for several of the toxins in the combination in order to determine toxin-specific multi-gene-responses by means of logical operations. […] Therefore, we have developed information theoretic measures to improve the toxin separability. The core idea of the approach is that low entropies (or highly informative genes) correspond to toxin-specific genes, while large entropies (low information) are associated with scenarios in which DE fold-changes across different toxins are similar and should be discarded.
# Milestone 2.1: Expose target cells to toxins of interest over four orders of magnitude of concentration and extract RNA: Three strains of bacteria were exposed to relevant levels of all toxins and extracted RNA. The toxin exposure protocol involves first growing a culture of bacterial cells to mid-log phase (OD≤0.2). […] Finally, cellular RNA was stabilized using Qiagen RNA Protect reagent, the cells were centrifuged, and the pellet was frozen at −80° C. To investigate the cellular RNA response to toxin insult, we exposed E. coli MG1655, E. coli LABEC01, and B. subtilis 168 cells to the toxins and concentrations shown in Table 7 and extracted RNA.
# Milestone 2.5: Prepare isolated RNA for Illumina sequencing using vendor provided reagents and carry out sequencing: We have prepared libraries and carried out sequencing for all toxins of interest.
# Cu1 = assay: microplate specificity test with on- and off-target heavy metals (fluorescence); assay type: cell-based, E. coli; conditions: on-target = 1, no-toxin control = 0; As 1.3, Cd 0.44, Cr(VI) 2, Cu 20, Pb 1, Hg 0.1, Co 20, Fe 500, Ni 1.7, Zn 7.6 μM
# Description: (§1) Each column represents the fluorescence response of a strain to the on-target metal (normalized to “1”) and all off-target metals, where “0” represents the unchanged response for the no-toxin control.
# (§2) Although the ability to sense cobalt, iron, nickel, and zinc is of secondary importance, these heavy metals were included as potential off-target inducers because they may be present in the natural water supply under test. […] This combinatorial logic was implemented in algorithms.
# Pb2 = assay: as above; assay type: cell-based, E. coli; conditions: on-target = 1, no-toxin control = 0; As 1.3, Cd 0.44, Cr(VI) 2, Cu 20, Pb 1, Hg 0.1, Co 20, Fe 500, Ni 1.7, Zn 7.6 μM
# Description: as §1, §2
# Cd1 = assay: as above; assay type: cell-based, E. coli; conditions: on-target = 1, no-toxin control = 0; As 1.3, Cd 0.44, Cr(VI) 2, Cu 20, Pb 1, Hg 0.1, Co 20, Fe 500, Ni 1.7, Zn 7.6 μM
# Description: as §1, §2
# Cr5 = assay: as above; assay type: cell-based, E. coli; conditions: on-target = 1, no-toxin control = 0; As 1.3, Cd 0.44, Cr(VI) 2, Cu 20, Pb 1, Hg 0.1, Co 20, Fe 500, Ni 1.7, Zn 7.6 μM
# Description: as §1, §2
# Hg3 = assay: as above; assay type: cell-based, E. coli; conditions: on-target = 1, no-toxin control = 0, As 1.3, Cd 0.44, Cr(VI) 2, Cu 20, Pb 1, Hg 0.1, Co 20, Fe 500, Ni 1.7, Zn 7.6 μM
# Description: as §1, §2
# As3 = assay: as above; assay type: cell-based, E. coli; conditions: on-target = 1, no-toxin control = 0; As 1.3, Cd 0.44, Cr(VI) 2, Cu 20, Pb 1, Hg 0.1, Co 20, Fe 500, Ni 1.7, Zn 7.6 μM
# Description: as §1, §2
# E. coli MG1655 cells = assay: batch growth curves of cells exposed to toxin around the EPA limit; assay type: cell-based; conditions: batch culture, levels around the EPA limit
# Description: In determining the toxin concentrations for exposure, EPA limit was explored. […] The general strategy was to examine the cellular RNA response at toxin levels where the cells are responding specifically to the presence of the toxin without triggering a universal (and unspecific) cellular stress response.
Compound,response of the recN promoter (E. coli MG1655; RNA-Seq mean fold change),response of the sulA promoter (E. coli MG1655; RNA-Seq mean fold change),response of the umuD promoter (E. coli MG1655; RNA-Seq mean fold change),Number DE Genes (E. coli MG1655; high concentration),Number DE Genes (E. coli MG1655; low concentration),fluorescence response of strain Cu1 (on-target copper) (Cu1),fluorescence response of strain Pb2 (on-target lead) (Pb2),fluorescence response of strain Cd1 (on-target cadmium) (Cd1),fluorescence response of strain Cr5 (on-target chromium(VI)) (Cr5),fluorescence response of strain Hg3 (on-target mercury) (Hg3),fluorescence response of strain Hg3 (on-target mercury) (Hg3; listed as chromium(VI)),fluorescence response of strain As3 (on-target arsenic) (As3),growth phase lag of cells exposed to toxin (E. coli MG1655 cells),response of the arsR promoter (E. coli MG1655; RNA-Seq mean fold change),response of the cusC promoter (E. coli MG1655; RNA-Seq mean fold change),response of the cusR promoter (E. coli MG1655; RNA-Seq mean fold change),response of the zntA promoter (E. coli MG1655; RNA-Seq mean fold change),response of the mntH promoter (E. coli MG1655; RNA-Seq mean fold change),response of the shiA promoter (E. coli MG1655; RNA-Seq mean fold change),response of the ybiI promoter (E. coli MG1655; RNA-Seq mean fold change)
[Cr+6] [Chromium(VI)],only shows sensitivity to high concentrations,only shows sensitivity to high concentrations,only shows sensitivity to high concentrations,377,270,−0.06,1.69,0.62,1.00,−0.96,sensitive,−0.22,exhibited this growth phase lag,,,,,,,
[As] [Arsenic],,,,14,3,−0.05,0.33,−0.18,0.24,0.25,,1.00,,responds specifically and monotonically to increasing concentrations,,,,,,
[Cu] [Copper],,,,77,110,1.00,−0.17,−0.09,−0.08,0.16,,,delay the onset of the exponential growth phase,,responds monotonically to increasing concentrations,only shows sensitivity to high concentrations,,,,
[Cd] [Cadmium],,,,38,132,−0.08,0.46,1.00,−0.02,−0.26,,−0.13,,,,,responds monotonically to increasing concentrations,,,
Mercury,,,,218,165,−0.05,1.44,−0.09,0.58,1.00,,−0.18,did not exhibit this growth phase lag,,,,,,,
[Pb] [Lead],,,,489,99,−0.05,1.00,0.06,0.01,0.12,,−0.05,,,,,,responds to high concentrations,responds to high concentrations,responds specifically and monotonically to increasing concentrations

# Source: patent US20220057378A1, “MICROBIAL MICROFLUIDIC BIOSENSOR” (priority 2015, published 2022)
